# According to patent publication US20120121540A1 (priority 2007, published 2012):
# Test: HCV replicon assay (luciferase reporter, ET cell line)
# Type: cell-based
# Conditions: Hepatitis C virus, HCV replicon luciferase activity in ET cells
# Summary of the method: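 EC50 and, via WST-1 cytotoxicity, TC50 were fitted with a Hill-coefficient equation to % inhibition across 10 two-fold dilutions. Compounds at 0.1 nM-[…] with 0.5% DMSO were applied 24 h post-seeding to replicon-bearing ET cells (luc-ubi-neo/NS3-5B, adaptive mutations). Firefly luciferase signal was measured after 48-72 h.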
row,Structure (SMILES),inhibition at 10 µM [%]
1,"O=C(c1nc2c(C(F)(F)F)cc(-c3ccoc3)cn2c1Cl)N1CCC(c2ccccn2)C1 (stereo not shown) [Compound 468, (3-Chloro-6-furan-3-yl-8-trifluoromethyl-imidazo[1,2-a]pyridin-2-yl)-(3-pyridin-2-yl-pyrrolidin-1-yl)-methanone]",93.9
2,"O=C(c1nc2c(C(F)(F)F)cc(-c3ccoc3)cn2c1Cl)N1N=C(c2ccoc2)CC1c1cc(Br)ccc1O (stereo not shown) [Compound 472, [5-(5-Bromo-2-hydroxy-phenyl)-3-furan-3-y-4,5-dihydro-pyrazol-1-yl]-(3-chloro-6-furan-3-yl-8-trifluoromethyl-imidazo[1,2-a]pyridin-2-yl)-methanone]",86.6
3,"Fc1cccc(C2CCN(Cc3cn4cc(-c5ccoc5)cc(C(F)(F)F)c4n3)C2)c1 (stereo not shown) [Compound 474, 2-[3-(3-Fluoro-phenyl)-pyrroidin-1-ylmethyl]-6-furan-3-yl-8-trifluoromethyl-imidazo[1,2-a]pyridine]",0.7
4,"Cc1noc(C2CCN(C(=O)c3nc4c(C(F)(F)F)cc(-c5ccoc5)cn4c3Cl)C2)n1 (stereo not shown) [Compound 475, (3-Chloro-6-furan-3-yl-8-trifluoromethyl-imidaz[1,2-a]pyridin-2-yl)-[3-(3-methyl-[1,2,4]oxadiazol-5-yl)-pyrrolidin-1-yl]-methanone]",93
5,"Cc1noc(C2CCN(C(=O)c3nc4c(C(F)(F)F)cc(-c5cn[nH]c5)cn4c3Cl)C2)n1 (stereo not shown) [Compound 476, [3-Chloro-6-(1H-pyrazol-4-yl)-8-trifluoromethyl-imidazo[1,2-a]pyridin-2-yl]-[3-(3-methyl-[1,2,4]oxadiazol-5-yl)-pyrrolidin-1-yl]-methanone]",72
6,"O=C(c1nc2c(C(F)(F)F)cc(-c3ccoc3)cn2c1Cl)N1CCC(c2ccccc2)=N1 [Compound 477, (3-Chloro-6-furan-3-yl-8-trifluoromethyl-imidazo[1,2-a]pyridin-2-yl)-(3-phenyl-4,5-dihydro-pyrazol-1-yl)-methanone]",97.6
7,"CC(C)(C)OC(=O)N[C@@H]1CCN(C(=O)c2nc3c(C(F)(F)F)cc(-c4ccoc4)cn3c2Cl)C1 [Compound 478, [1-(3-Chloro-6-furan-3-yl-8-trifluoromethyl-imidazo[1,2-a]pyridine-2-carbonyl)-pyrrolidin-3-yl]-carbamic acid tert-butyl ester]",4.9
8,"CS(=O)(=O)N[C@@H]1CCN(C(=O)c2nc3c(C(F)(F)F)cc(-c4ccoc4)cn3c2Cl)C1 [Compound 480, N-[1-(3-Chloro-6-furan-3-yl-8-trifluoromethyl-imidazo[1,2-a]pyridine-2-carbonyl)-pyrrolidin-3-yl]-methanesulfonamide]",47.7
9,"O=C1OC(c2ccccc2)CN1Cc1cn2cc(-c3ccoc3)cc(C(F)(F)F)c2n1 (stereo not shown) [Compound 483, 3-(6-Furan-3-yl-8-trifluoromethyl-imidazo[1,2-a]pyridin-2-ylmethyl)-5-phenyl-oxazolidin-2-one]",99.9
10,"O=C(NCc1cccs1)c1nc2c(C(F)(F)F)cc(-c3cn[nH]c3)cn2c1-c1cn[nH]c1 [Compound 485, 3,6-Bis-(1H-pyrazol-4-yl)-8-trifluoromethyl-imidazo[1,2-a]pyridine-2-carboxylic acid (thiophen-2-ylmethyl)-amide]",58.9
11,"O=C(c1nc2c(C(F)(F)F)cc(-c3cn[nH]c3)cn2c1-c1cn[nH]c1)N1CCC(c2cccc(F)c2)C1 (stereo not shown) [Compound 486, [3,6-Bis-(1H-pyrazol-4-yl)-8-trifluoromethyl-imidazo[1,2-a]pyridin-2-yl]-[3-(3-fluoro-phenyl)-pyrrolidin-1-yl]-methanone]",65.8
12,"O=C(c1nc2c(C(F)(F)F)cc(-c3ccoc3)cn2c1Cl)N1CCC1c1ccccc1 (stereo not shown) [Compound 487, (3-Chloro-6-furan-3-yl-8-trifluoromethyl-imidazo[1,2-a]pyridin-2-yl)-(2-phenyl-azetidin-1-yl)-methanone]",94.2
13,O=C(c1nc2c(C(F)(F)F)cc(-c3ccoc3)cn2c1Cl)N1CC(c2ccc(C(F)(F)F)cc2)C1 [Compound 488],60.2
